These results are taken from PMC6506615, “Internalization of Erythrocyte Acylpeptide Hydrolase Is Required for Asexual Replication of Plasmodium falciparum” (mSphere, 2019).

The test addresses T1, acylpeptide hydrolase (APEH) (Homo sapiens, UniProt P13798).
T1 sequence (P13798 1-732): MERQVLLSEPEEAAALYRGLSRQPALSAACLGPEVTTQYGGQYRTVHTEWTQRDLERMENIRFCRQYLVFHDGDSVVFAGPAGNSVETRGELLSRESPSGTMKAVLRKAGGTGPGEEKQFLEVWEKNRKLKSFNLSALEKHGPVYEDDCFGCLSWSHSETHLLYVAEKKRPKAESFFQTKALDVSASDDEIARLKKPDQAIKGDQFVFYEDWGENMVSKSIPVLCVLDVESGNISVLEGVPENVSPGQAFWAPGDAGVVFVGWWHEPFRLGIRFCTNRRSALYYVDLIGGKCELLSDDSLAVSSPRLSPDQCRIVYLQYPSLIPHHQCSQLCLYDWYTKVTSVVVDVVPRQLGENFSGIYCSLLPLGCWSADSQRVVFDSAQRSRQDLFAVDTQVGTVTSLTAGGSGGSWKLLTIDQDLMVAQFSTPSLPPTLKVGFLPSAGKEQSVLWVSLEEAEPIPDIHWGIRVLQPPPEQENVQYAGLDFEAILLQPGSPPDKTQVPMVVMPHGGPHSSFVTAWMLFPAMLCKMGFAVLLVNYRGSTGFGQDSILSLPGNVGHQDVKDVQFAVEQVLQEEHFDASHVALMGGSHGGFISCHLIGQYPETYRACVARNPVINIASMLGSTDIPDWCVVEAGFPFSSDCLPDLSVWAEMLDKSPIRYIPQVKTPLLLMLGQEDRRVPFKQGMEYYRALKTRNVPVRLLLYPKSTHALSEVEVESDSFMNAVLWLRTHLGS
As to the kind of experiment: competitive ABPP with TAMRA-FP in human erythrocyte lysate and saponin-isolated parasite lysate; also intact erythrocytes. Type of test: biochemical.

Turning to `CC(C)CC(O)(CC(C)C)c1cnn(C(=O)N2CCCC2)n1` [AA74-1], the IC50 turned out to be 7.4 ± 2.4 nM.
